Experiments:
NMDA receptor [1] = test: Anti-NMDA activity: prevention of convulsions and death caused by NMDA injected into the lateral ventricle of the brain; assay type: in vivo; conditions: mice, i.p. 40 minutes before NMDA 0.1 μg into the lateral ventricle, probit analysis
Method: The experiment was conducted in white non-inbred male mice of 20–24 g of weight. A solution of the test agent in 0.2 ml of 5% aqueous dimethylsulfoxide was injected intraperitoneally 40 minutes before the injection of NMDA into the lateral vehicle of the brain. For the mice that had been prepared beforehand for the experiment a skin flap on the head of each mouse was removed under ether anestesia and a hole was bored in the skull by a fine drill. NMDA (0.1 μg) in a volume of 1.4 μl was injected with a microsyringe. The microsyringe needle was immersed to a depth of 2.5 mm. After the operation, the wound was treated with a 2% novocaine solution. […] The accuracy of NMDA injection was monitored by injection of methylene blue. Two to 4 hours after the operation, the mice were used for a pharmacological experiment.
The animals inoculated with a saline solution were used as control.
Each dose of the agent was tested in a croup of 6–8 animals. The ED50 value (the dose of the agent preventing the development of convulsions and the death of 50% of the animals) was determined by a probit-analysis method (Litchfild J. T., Wicoxon F. J.—Pharmacol. Exp. Therap., 1949, v. 96, p. 99–114).

NMDA receptor [2] = conditions: cited from earlier work

| SMILES | ED50 (dose preventing the development of convulsions and the death of 50% of the animals) (NMDA receptor [1]) | further results |
| --- | --- | --- |
| NC(CCCP(=O)(O)O)C(=O)O (stereo not drawn) [AP-5, 2-amino-5-phosphonovaleric acid] | 190 ± 20 mg/kg | side neurotoxic effect (disturbance of coordination of movement, sedative effect) (NMDA receptor [2]; in the doses that produce the anti-NMDA effect): side neurotoxic effect; ED50, anti-NMDA effect (NMDA receptor [2]; literature value): 190 mg/kg |
| CN1CCc2[nH]c3ccccc3c2C1 [No. 1, 2-methyl-2,3,4,5-tetrahydro-1H-pyrido[4,3-b]indole] | 30 ± 4 mg/kg |  |
| Cc1ccc2[nH]c3c(c2c1)CN(C)CC3 [No. 2, 2,8-dimethyl-2,3,4,5-tetrahydro-1H-pyrido[4,3-b]indole] |  | ED50 (dose preventing the development of convulsions and the death of 50% of the animals) (NMDA receptor [1]; listed as 2): 16 ± 4 mg/kg |
| Cc1ccc2[nH]c3c(c2c1)CN(C)CC3 [No. 3, 2,8-dimethyl-2,3,4,5-tetrahydro-1H-pyrido[4,3-b]indole] |  | ED50 (dose preventing the development of convulsions and the death of 50% of the animals) (NMDA receptor [1]; listed as 3): ~40 mg/kg |
| CN1CCc2[nH]c3ccc(Br)cc3c2C1 [No. 5, 2-methyl-8-bromo-2,3,4,5-tetrahydro-1H-pyrido[4,3-b]indole] | 29 ± 5 mg/kg |  |
| CCN1CCc2[nH]c3ccccc3c2C1 [No. 6, 2-ethyl-2,3,4,5-tetrahydro-1H-pyrido[4,3-b]indole] | 45 ± 6 mg/kg |  |
| c1ccc(CN2CCc3[nH]c4ccccc4c3C2)cc1 [No. 7, 2-benzyl-2,3,4,5-tetrahydro-1H-pyrido[4,3-b]indole] | 43 ± 5 mg/kg |  |
| Cc1ccc2c(c1)c1c(n2Cc2ccccc2)CCN(C)C1 [No. 8, 2,8-dimethyl-5-benzyl-2,3,4,5-tetrahydro-1H-pyrido[4,3-b]indole] | 45 ± 5 mg/kg |  |
| Cc1ccc(CCn2c3c(c4ccccc42)CN(C)CC3)cn1 [No. 9, 2-methyl-5-[2-(6-methyl-3-pyridyl)ethyl]-2,3,4,5-tetrahydro-1H-pyrido[4,3-b]indole] | 22 ± 4 mg/kg |  |
| Cl.Nc1c2c(nc3ccccc13)CCCC2 [Tacrine, 9-amino-1,2,3,4-tetrahydroacridine hydrochloride, reference compound] | not active |  |

Source: patent publication US7071206B2, “Agents for treating neurodegenerative disorders” (Medivation, Inc., priority 1995, dated 2006)
